Assay results from ChEMBL document CHEMBL6074639, “MALT1 Inhibitors for Treating Cancer and Immunological Diseases” (ACS Med Chem Lett, 2024).

target: T1, Mucosa-associated lymphoid tissue lymphoma translocation protein 1 (Homo sapiens, UniProt Q9UDY8); assay: Inhibition of full length his-tagged MALT1 (1 to 824 residues) (unknown origin) expressed in Baculovirus infected in insect cells using tetrapeptide-[…]-AMC as fluorescent substrate preincubated for 50 mins followed by substrate addition and measured after 4 hrs by fluorescence based analysis
T1 sequence (Q9UDY8 whole entry): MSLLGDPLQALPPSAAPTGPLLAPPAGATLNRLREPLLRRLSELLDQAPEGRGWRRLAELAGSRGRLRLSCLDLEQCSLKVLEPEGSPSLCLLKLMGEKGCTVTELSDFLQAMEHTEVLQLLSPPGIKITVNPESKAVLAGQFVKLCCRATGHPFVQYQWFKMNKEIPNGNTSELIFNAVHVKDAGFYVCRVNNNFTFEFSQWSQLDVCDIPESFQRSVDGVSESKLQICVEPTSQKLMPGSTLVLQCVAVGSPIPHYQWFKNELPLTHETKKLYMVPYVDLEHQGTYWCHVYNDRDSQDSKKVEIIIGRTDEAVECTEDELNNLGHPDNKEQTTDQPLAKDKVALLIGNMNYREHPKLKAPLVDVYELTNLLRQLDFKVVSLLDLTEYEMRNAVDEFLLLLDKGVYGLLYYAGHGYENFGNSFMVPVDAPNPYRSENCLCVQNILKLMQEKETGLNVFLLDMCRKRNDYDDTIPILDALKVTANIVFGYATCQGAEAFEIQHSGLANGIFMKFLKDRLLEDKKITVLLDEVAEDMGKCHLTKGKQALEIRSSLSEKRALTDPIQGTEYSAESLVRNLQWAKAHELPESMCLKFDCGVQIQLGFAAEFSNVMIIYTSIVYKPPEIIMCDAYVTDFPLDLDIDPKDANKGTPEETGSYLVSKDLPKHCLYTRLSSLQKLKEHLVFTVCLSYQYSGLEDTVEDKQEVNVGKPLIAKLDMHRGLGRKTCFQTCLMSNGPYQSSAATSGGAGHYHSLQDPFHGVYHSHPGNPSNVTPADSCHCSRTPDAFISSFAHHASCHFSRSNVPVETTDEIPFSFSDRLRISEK

| SMILES | IC50 |
| --- | --- |
| C[C@@]1(C(F)(F)F)CN(c2ccc([C@H]3C(F)(F)[C@]3(C)C(=O)N[C@H]3C[C@@H](C[S+](C)(=N)[O-])C3)cc2)c2cnc3cc(Cl)nn3c21 (stereo partly specified) | 6 nM |
| C[C@@]1(C(F)(F)F)CN(c2ccc([C@H]3C(F)(F)[C@]3(C)C(=O)NCCS(N)(=O)=O)cc2)c2cnc3cc(Cl)nn3c21 | 6 nM |
| C[C@@]1(C(F)(F)F)CN(c2ccc([C@H]3C(F)(F)[C@]3(C)C(=O)NCC3CNC(=O)C3)cc2)c2cnc3cc(Cl)nn3c21 (stereo partly specified) | 6 nM |

Further compounds by falling IC50, results first:

| IC50 | SMILES |
| --- | --- |
| 6 nM | CC(C)(C)NC(=O)[C@]1(C)[C@@H](c2ccc(N3C[C@@](C)(C(F)(F)F)c4c3cnc3cc(Cl)nn43)cc2)C1(F)F |
| 5 nM | C[C@@]1(C(F)(F)F)CN(c2ccc([C@H]3C(F)(F)[C@]3(CO)C(N)=O)cc2)c2cnc3cc(Cl)nn3c21 |
| 5 nM | C[C@@]1(C(F)(F)F)CN(c2ccc([C@H]3C(F)(F)[C@]3(C)C(=O)NCC(N)=O)cc2)c2cnc3cc(Cl)nn3c21 |
